Laboratory results as given in PMC11610669, “A Spectroscopic Study on the Amyloid‐β Interaction with Clicked Peptide‐Porphyrin Conjugates: a Vision Toward the Detection of Aβ Peptides in Aqueous Solution” (Chembiochem, 2024).

Tests used:
Aβ42 = Aβ42 (Homo sapiens, UniProt P05067); assay: Grating-Coupled Interferometry (GCI) binding to immobilized Aβ42
Experimental: The Grating‐Coupled Interferometry (GCI) is a widely used analytical technique for characterizing intermolecular interactions. It allows quantitative measurements of both the affinity and the kinetics of the binding events. This high sensitivity label‐free method was exploited to measure the interactions of Aβ42 with Cu‐Ph‐Pep , Ph‐Pep , and Zn‐Ph‐Pep (Figure 5S). Control experiments with pristine MCPTPyP and the peptide GPGKLVFF ( Pep ) were carried out for comparison. The calculated association and dissociation kinetic constants (kon and koff, respectively) and the thermodynamic binding constant (KD), are summarized in Table 1. The obtained values indicate that all the conjugates show good affinities with Aβ42. It is also clear from Table 1 that the peptide moiety is fundamental for the molecular recognition of the Aβ42 peptide.[48] […] Nevertheless, it is important to emphasize that the interaction with Aβ42 is primarily mediated by the peptide rather than by the porphyrin macrocycle. We next investigated whether these peptide derivatives could be employed as molecular probes for the detection of Aβ42 aggregated species. A new set of CD experiments was then carried out with Aβ42 at 20 μM both in the absence and in the presence of the porphyrin‐peptide conjugates at 1 : 1 molar ratio in the UV (195–350) and Visible (350–500) regions. […] The signal rapidly evolved toward the typical β‐sheet profile (already within 24 h) with a single minimum at 216 nm, an x‐axis intercept at 202 nm and a maximum shift at a wavelength 195 nm.[49] […] For the sake of comparison, the CD spectra of the porphyrin‐peptide conjugates at 20 μM were also recorded in the same experimental conditions, both in the far‐UV and Visible regions (Figure 6S).
The experiments were performed on a Creoptix WAVE system (Creoptix). Borate buffer (100 mM sodium borate pH 9.0, 1 M NaCl) was used for chip conditioning. Aβ42 peptide (20 μg/ml in Na Acetate pH 4.5) was immobilized on 4PCH WAVE chips (quasiplanar polycarboxylate surface; Creoptix) according to the manufacturer instructions at a final density of 1910±40 pg/mm^2. Single‐cycle sequential injections of dilution series for each Porphyrin‐Peptide conjugates in running buffer (PBS, 0.005 % Tween 20, 1 % DMSO, 0.2 mg/ml BSA) were performed at 25 °C, using a flow rate of 100 μl/min. In details, for the conjugate Cu‐Ph‐Pep , 1 : 2 dilution series starting from 200 μM were injected for 10 s association time, 45 s dissociation time, followed by a dissociation time of 600 s for the last higher concentration injection. Finally, for the conjugates Ph‐Pep and Zn‐Ph‐Pep , 1 : 2 dilution series starting from 50 μM and 100 uM, respectively, were injected for 30 s association time, 45 s dissociation time, followed by a dissociation time of 600 s for the last higher concentration injection. Blank injections were used for double referencing and a DMSO calibration curve for bulk correction. Analysis and correction of the obtained data were performed using the Creoptix WAVE control software (correction applied: X and Y offset; DMSO calibration; double referencing). Mass transport binding models with bulk correction were used to fit all experiments. All the experiments have been performed at least in triplicate.
Figure 5S. Quantitative binding kinetics of Aβ42 vs a) MCPTPyP; b) Cu-Ph-Pep; c) Ph-Pep; d) Zn-Ph-Pep; and e) Pep measured by GCI. All curves were blank subtracted. Experiments were performed in triplicate. All the quality assessments (i.e., χ2 shown in Table 1 of the main text , parameter errors, and residual plots were acceptable; the sensorgrams had sufficient curvatures an d the kinetic constant k off were within the measurable range) were fulfilled. Descriptive Statistical Analysis was employed to calculate the mean of the obtained values of k on, koff and KD as a measure of central tendency and standard deviations of the former values were computed as a measure of dispersion.
Figure 6S. […]

SH-SY5Y = assay: Live cell confocal fluorescence imaging; type: cell-based, human; conditions: RA-differentiated SH-SY5Y, 5 μM, 24 h, excitation 405 nm, emission 600–700 nm
Experimental: The intracellular localization of porphyrins in living cells has already been reported in the literature.[50, 51] […] The ability of our compounds to associate with cells or to be taken up by them was investigated by live cell confocal fluorescence and flow cytometry. For this purpose, we exploited the fluorescence of the porphyrin moiety. Fully differentiated SH‐SY5Y cells were exposed to 5 μM of each compound for 24 h, and then fluorescence spectra inside and outside cells were measured as described in the experimental section. The images reported in Figure 6, panel a, show the emission spectra recorded (pixel by pixel) inside cells, compared to the emission spectra recorded for control cells (no porphyrins in the growth medium). A specific porphyrin signal recorded between 600 nm and 700 nm only in the exposed sample, provides evidence that the porphyrin‐conjugated compounds are distributed within the cells. We first measured the emission spectra of each compound to confirm that the fluorescent properties measured in vitro were maintained under the conditions applied during the biological assay. Once the specific emission peak typical of porphyrins was detected inside the cells, we measured the average fluorescence intensity for each compound under study. Although modest, the signal was detected in almost every cell under the microscope stage. […]

Chain of Aβ42 (P05067 672-713 limits assumed): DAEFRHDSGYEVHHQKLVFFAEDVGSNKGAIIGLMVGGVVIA

Kd (Aβ42; GCI (Creoptix WAVE), Aβ42 immobilized on 4PCH chip, PBS, 0.005 % Tween 20, 1 % DMSO, 0.2 mg/ml BSA, 25 °C, 100 μl/min, mass transport binding model, mean ± SD, at least triplicate): 215 ± 13 µM
χ^2 (average of the squared residuals, fitting confidence) (Aβ42; GCI fit quality parameter): 0.63±0.06
SMILES: C[n+]1ccc(-c2c3nc(c(-c4cc[n+](C)cc4)c4ccc([nH]4)c(-c4cc[n+](C)cc4)c4nc(c(-c5ccc(C(=O)O)cc5)c5ccc2[nH]5)C=C4)C=C3)cc1.[Cl-].[Cl-].[Cl-] [MCPTPyP, 5‐(4‐carboxyphenyl)‐10,15,20‐(tri‐N‐Methyl‐4‐Pyridyl) Porphyrin trichloride, reference compound]
cell entry / intracellular distribution (SH-SY5Y): able to cross the plasma membrane and to distribute within the cells
